ChEMBL document CHEMBL1136837, “Unified QSAR approach to antimicrobials. 4. Multi-target QSAR modeling and comparative multi-distance study of the giant components of antiviral drug-drug complex networks” (Bioorg Med Chem, 2009)

Tests used:
Cowpox virus = experiment: Antiviral activity against Cowpox virus; format: functional, organism-based
[1] = test system: Human immunodeficiency virus 1; experiment: Antiviral activity against HIV1; format: functional, organism-based
Vaccinia virus = experiment: Antiviral activity against Vaccinia virus; format: functional, organism-based, Orthopoxvirus vaccinia; conditions: Orthopoxvirus vaccinia
Human rhinovirus sp. = experiment: Antiviral activity against Human rhinovirus; format: functional, organism-based
Human alphaherpesvirus 3 = experiment: Antiviral activity against Varicella zoster virus; format: functional, organism-based
Human alphaherpesvirus 1 = experiment: Antiviral activity against Herpes simplex virus 1; format: functional, organism-based; conditions: Human alphaherpesvirus 1
[2] = test system: Human immunodeficiency virus 2; experiment: Antiviral activity against HIV2; format: functional, organism-based
Human alphaherpesvirus 2 = experiment: Antiviral activity against Herpes simplex virus 2; format: functional, organism-based; conditions: Human alphaherpesvirus 2
Human betaherpesvirus 5 = experiment: Antiviral activity against Human cytomegalovirus; format: functional, organism-based; conditions: Human betaherpesvirus 5
Human papillomavirus = experiment: Antiviral activity against Human papillomavirus; format: functional, organism-based

O=c1[nH]cnc2c1ncn2[C@H]1CC[C@@H](CO)O1 [DIDANOSINE]
IC50 (Cowpox virus): 423000 nM
IC50 [1]: 4000 nM
IC50 (Vaccinia virus): 423000 nM

CCOC(=O)/C=C/[C@H](C[C@@H]1CCNC1=O)NC(=O)/C=C/c1ccc2c(c1)OCO2
IC50 (Human rhinovirus sp.): 1810 nM

N#CCc1c(N)nc(N)n(CCOCP(=O)(O)O)c1=O
IC50 (Human alphaherpesvirus 3): 0.084 nM
IC50 (Human alphaherpesvirus 1): 1.2 nM
IC50 [1]: 0.3 nM
IC50 [2]: 0.3 nM
IC50 (Vaccinia virus): 1.2 nM
IC50 (Human alphaherpesvirus 2): 1.2 nM
IC50 (Human betaherpesvirus 5): 0.15 nM

CN(C)c1cc(=O)n(CCOCP(=O)(O)O)c(N)n1
IC50 [2]: 0.342 nM

CCOC(=O)/C=C/[C@H](C[C@@H]1CCNC1=O)NC(=O)c1cc(-c2ccccc2)oc1C
IC50 (Human rhinovirus sp.): 1940 nM

C[C@H](Cn1cnc2c(N)ncnc21)OCP(=O)(O)O [TENOFOVIR ANHYDROUS]
IC50 (Cowpox virus): 300000 nM
IC50 [1]: 7200 nM
IC50 (Vaccinia virus): 300000 nM

O=c1[nH]c(=O)n([C@H]2C[C@H](O)[C@@H](CO)O2)cc1I [IDOXURIDINE]
IC50 (Cowpox virus): 2000 nM
IC50 (Vaccinia virus): 6000 nM

O=C(O)CS(=O)(=O)c1ccc(NCCc2ccccc2)cc1
IC50 (Human papillomavirus): 67000 nM

CC(C)OP(=O)(COCCSc1cc(N)nc(N)n1)OC(C)C
IC50 (Human alphaherpesvirus 3): 0.137 nM
IC50 (Human alphaherpesvirus 1): 1.1 nM
IC50 [2]: 0.143 nM
IC50 (Human alphaherpesvirus 2): 1.1 nM

COc1c(C)c2c(c(O)c1C/C=C(\C)CCC(=O)O)C(=O)OC2 [MYCOPHENOLIC ACID]
IC50 (Cowpox virus): 3200 nM

Nc1nc(N)n(CCOCP(=O)(O)O)c(=O)c1-c1ccccc1
IC50 (Human alphaherpesvirus 3): 0.15 nM
IC50 (Human alphaherpesvirus 1): 1.2 nM
IC50 [1]: 0.3 nM
IC50 [2]: 0.3 nM
IC50 (Vaccinia virus): 1.2 nM
IC50 (Human alphaherpesvirus 2): 1.2 nM
IC50 (Human betaherpesvirus 5): 0.15 nM

C[C@H](NC(=O)c1cccc(-c2ccc(S(=O)(=O)CC(=O)O)cc2)c1)c1ccccc1
IC50 (Human papillomavirus): 1700 nM

CC(C)OC(=O)C(C)NP(=O)(COCCn1cnc2c(NC3CC3)nc(N)nc21)Oc1ccccc1 (centres undefined)
IC50 (Cowpox virus): 2600 nM

Nc1nc(N)c(-c2ccccc2)c(OCCOCP(=O)(O)O)n1
IC50 (Human alphaherpesvirus 3): 0.15 nM
IC50 (Human alphaherpesvirus 1): 1.2 nM
IC50 [1]: 0.3 nM
IC50 [2]: 0.3 nM
IC50 (Vaccinia virus): 1.2 nM
IC50 (Human alphaherpesvirus 2): 1.2 nM
IC50 (Human betaherpesvirus 5): 0.15 nM

O=C(NCc1cccc2ccccc12)c1cccc(-c2ccc(C(=O)C(F)(F)P(=O)(O)O)cc2)c1
IC50 (Human papillomavirus): 740 nM

O=C(O)CS(=O)(=O)c1ccc(-c2cccc(C(=O)N3CCOCC3)c2)cc1
IC50 (Human papillomavirus): 22000 nM

Cc1c(N)nc(N)n(CCOCP(=O)(O)O)c1=O
IC50 (Human alphaherpesvirus 1): 1.2 nM
IC50 [1]: 0.3 nM
IC50 [2]: 0.3 nM
IC50 (Vaccinia virus): 1.2 nM
IC50 (Human alphaherpesvirus 2): 0.12 nM

O=C(O)CS(=O)(=O)c1ccc(-c2ccc(CC(=O)NCc3ccccc3)cc2)cc1
IC50 (Human papillomavirus): 340 nM

Cc1cccc(CNC(=O)c2cccc(-c3ccc(S(=O)(=O)CC(=O)O)cc3)c2)c1
IC50 (Human papillomavirus): 27 nM

O=P(O)(O)CS(=O)(=O)c1ccc(-c2ccccc2)cc1
IC50 (Human papillomavirus): 30000 nM

O=[N+]([O-])CS(=O)(=O)c1ccc(-c2ccccc2)cc1
IC50 (Human papillomavirus): 65000 nM

CC(C)OC(=O)C(C)NP(=O)(CO[C@H](C)Cn1cnc2c(N)ncnc21)Oc1ccccc1 (some centres undefined)
IC50 (Cowpox virus): 98900 nM

O=C(O)CS(=O)(=O)c1ccc(-c2ccc(C(=O)N3CCCCC3)cc2)cc1
IC50 (Human papillomavirus): 3300 nM

CN(C)c1nc(N)nc2c1ncn2CCOCP(=O)(O)O
IC50 (Cowpox virus): 53000 nM
IC50 (Vaccinia virus): 35000 nM

CN(C(=O)c1ccc(-c2ccc(S(=O)(=O)CC(=O)O)cc2)cc1)c1ccccc1
IC50 (Human papillomavirus): 4800 nM

CCOC(=O)/C=C/[C@H](CCC(N)=O)NC(=O)[C@H](Cc1ccccc1)n1cccc(NC(=O)c2cc(C)on2)c1=O
IC50 (Human rhinovirus sp.): 16 nM

O=C(O)CS(=O)(=O)c1ccc(-c2ccc(CC(=O)Nc3ccccc3)cc2)cc1
IC50 (Human papillomavirus): 160 nM

C=CCc1c(N)nc(N)n(CCOCP(=O)(O)O)c1=O
IC50 (Human alphaherpesvirus 3): 0.15 nM
IC50 (Human alphaherpesvirus 1): 1.2 nM
IC50 [1]: 0.3 nM
IC50 [2]: 0.3 nM
IC50 (Vaccinia virus): 1.2 nM
IC50 (Human alphaherpesvirus 2): 0.77 nM

CCOC(=O)/C=C/[C@H](C[C@@H]1CCNC1=O)NC(=O)C1=Cc2ccccc2OC1
IC50 (Human rhinovirus sp.): 1190 nM

CCOC(=O)/C=C/[C@H](CCC(N)=O)NC(=O)[C@H](Cc1ccccc1)n1cccc(NC(=O)C2SCCS2)c1=O
IC50 (Human rhinovirus sp.): 104 nM

O=C(O)CS(=O)(=O)c1ccc2ccccc2c1
IC50 (Human papillomavirus): 40000 nM

CS(=O)(=O)c1ccc(-c2ccccc2)cc1
IC50 (Human papillomavirus): 80000 nM

CCOC(=O)/C=C/[C@H](CCC(N)=O)NC(=O)[C@H](Cc1ccccc1)n1cccc(NC(C)=O)c1=O
IC50 (Human rhinovirus sp.): 888 nM

CC(C)(C(=O)O)S(=O)(=O)c1ccc(-c2ccccc2)cc1
IC50 (Human papillomavirus): 80000 nM

O=C(O)CS(=O)(=O)c1ccc(Sc2ccccc2)cc1
IC50 (Human papillomavirus): 80000 nM

CCOC(=O)/C=C/[C@H](C[C@@H]1CCNC1=O)NC(=O)C1=Cc2cc(Cl)ccc2OC1
IC50 (Human rhinovirus sp.): 160 nM

CC(C)(C)C(=O)OCOP(=O)(COCCn1cnc2c(N)ncnc21)OCOC(=O)C(C)(C)C [ADEFOVIR DIPIVOXIL]
IC50 (Cowpox virus): 13000 nM
IC50 (Vaccinia virus): 5100 nM
